Measured values published in US20030228572A1, “Method of determining the efficacy of a compound in treating microbial infection” (priority 1998, published 2003).

Assays:
[1] = test system: clinical S. aureus isolates, OSSA; experiment: Oxacillin susceptibility test of clinical isolates by the impedance method; type: cell-based
Experimental: (§1) Susceptibility tests of the 235 clinical isolates of S. aureus were performed in a similar way to that used for the ATCC strains, except that only one concentration (2 μg/ml) of oxacillin in Mueller-Hinton agar was used. A negative control (Mueller-Hinton agar without oxacillin) was included for each strain tested. A strain was designated as OSSA if, in the presence of the antibiotic, there was no DT obtained within an incubation period of 24 h. A strain was designated as ORSA if, in the presence of the antibiotic, the DT was not affected or the delay in DT was less than 3 h as compared to the negative control. S. aureus ATCC 29213 (OSSA) and ATCC 33592 (ORSA) were run at the same time as controls. Strains showing discrepant results were reconfirmed by the oxacillin screen agar (Becton Dickinson Microbiology Systems, Cockysville, Md.).

[2] = test system: clinical S. aureus isolates, ORSA; experiment: as above; type: cell-based; settings: for DT in h on Mueller-Hinton agar With Oxacillin (2 μg/ml), mean ± standard deviation: without oxacillin 5.7 ± 0.6 h
Experimental: as §1

[3] = test system: blood cultures containing ORSA; experiment: Direct detection in blood cultures by the impedance method; type: cell-based, S. aureus; settings: oxacillin 2 μg/ml; 36 of 38 vials containing ORSA
Experimental: (§2) Blood specimens were collected at the National Cheng Kung University Hospital during a period in 1996. The BACTEC NR6A and NR7A vials (containing about 30 ml of liquid media; Becton Dickinson Microbiology Systems) were normally inoculated with 3 to 5 ml of blood from the patients, inserted into a BACTEC NR660 instrument (Becton Dickinson Microbiology Systems), and incubated at 37° C. A small aliquot (0.1 to 0.2 ml) of the culture broth was drawn from the vials showing growth of gram-positive cocci (as determined by Gram stain), heated in a boiling water bath for 15 min, and tested for thermonuclease activities on slides coated with toluidine blue-DNA agar (Bennett et al., Staphylococcus aureus, pp. 161-166, In: Bacteriological Analytical Manual, 7th ed. Association of Official Analytical Chemists International, Arlington, Va., 1992). A positive thermonuclease reaction was the development of a pink halo extending at least 1 mm from the periphery of the reaction well. […] The modules were incubated at 37° C. and DTs of the wells were automatically determined by the instrument or by manual inspection of the impedance curves. A vial was designated as ORSA or OSSA positive according to the same parameters set for pure stock cultures. […]

[4] = test system: blood cultures containing OSSA; experiment: as above; type: cell-based, S. aureus; settings: oxacillin 2 μg/ml; 57 of 58 blood cultures containing OSSA; within an incubation period of 24 h
Experimental: as §2

[5] = test system: S. aureus ATCC 29213 (OSSA); experiment: Impedance growth curves (detection time, DT) on Mueller-Hinton agar with oxacillin, BACTOMETER M-128; type: cell-based; settings: for DT (detection time): Mueller-Hinton agar
Experimental: (§3) Mueller-Hinton agar containing different concentrations of oxacillin (0 to 128 μg) was prepared by two-fold serial dilutions, and 0.6 ml of the medium was dispensed into the module wells of […]-128 (bioMerieux Vitek, Hazelwood, Mo.). The three ATCC S. aureus strains were used to observe the effect of oxacillin concentration on the impedance curves during bacterial growth. These strains were subcultured on TSA for 18 to 24 hours (“h”) at 37° C. One single colony on TSA was inoculated into 10 ml of TSB, incubated at 37° C. for several hours, and diluted with 0.1% peptone water to a turbidity of 0.5 McFarland. An aliquot (0.1 ml) of the bacterial suspensions was inoculated into the module well containing Mueller-Hinton agar supplemented with oxacillin. The inoculated modules (each module contains 16 wells) were inserted into the incubator of BACTOMETER set at 37° C. The impedance change in each well was continuously monitored and recorded by the instrument at 6-minute (“min”) intervals for 24 h, and results were obtained graphically as impedance growth curves. DT in hours for each well was automatically determined by the instrument software when three consecutive readings of impedance change exceeded the default value in the instrument, or was manually determined by locating the inflection point (where an accelerating change of impedance was evident) on the impedance curve.

[6] = test system: S. aureus ATCC 33592 (ORSA); experiment: as above; type: cell-based; settings: for DT (detection time): Mueller-Hinton agar, without oxacillin 5.3 h
Experimental: as §3

[7] = test system: S. aureus ATCC 33591 (ORSA); experiment: as above; type: cell-based; settings: for DT (detection time): Mueller-Hinton agar, without oxacillin 5.3 h
Experimental: as §3

[8] = oxacillin concentration as high as 128 μg/ml
[9] = oxacillin concentration as high as 64 yg/ml

SMILES: Cc1onc(-c2ccccc2)c1C(=O)N[C@@H]1C(=O)N2[C@@H]1SC(C)(C)[C@@H]2C(=O)O [oxacillin]
- DT in h (range) on Mueller-Hinton agar With Oxacillin (2 μg/ml) ([1]; 84 correctly identified of 86 OSSA strains, 24 h incubation): —^c (—, DT was not found within an incubation period of 24 h.)
- DT ([1]; oxacillin 2 μg/ml, 84 of the 86 OSSA strains, within an incubation period of 24 h): no DT
- DT in h (range) on Mueller-Hinton agar With Oxacillin (2 μg/ml) ([2]; 141 ORSA strains, range over strains): 4.7 to 9.1 h
- DT in h on Mueller-Hinton agar With Oxacillin (2 μg/ml), mean ± standard deviation ([2]; 141 ORSA strains): 6.0 ± 0.7 h
- DT in h on Mueller-Hinton agar With Oxacillin (2 μg/ml), mean ± standard deviation ([2]; 141 ORSA strains, listed as Oxacillin): 6.0 ± 0.7 h
- delay in DTs compared to negative controls ([2]; oxacillin 2 μg/ml, 141 of 149 ORSA strains (DTs equal to controls or delayed)): less than 3 h
- DT behind the negative control ([2]; oxacillin 2 μg/ml, false-negative strain no. 127): 17 h
- DT ([2]; oxacillin 2 μg/ml, false-negative strain no. 127, negative control DT=5.7 h): 22.7 h
- DT ([2]; oxacillin 2 μg/ml, seven of the eight false-negative strains, within an incubation period of 24 h): no DT
- average DT [3]: 5.5 h
- DT [4]: no DTs
- DT (detection time) ([5]; oxacillin 0.063 μg per ml, without oxacillin 4.0 h): 4.1 h
- increase in DT ([5]; oxacillin 0.063 μg/ml versus no oxacillin): 0.1 h
- DT (detection time) ([5]; oxacillin 0.125 μg per ml, without oxacillin 4.0 h): 4.1 h
- increase in DT ([5]; oxacillin 0.125 μg/ml versus no oxacillin): 0.1 h
- DT (detection time) ([5]; oxacillin 0.25 μg per ml, within 16 hours): no DT
- growth ([5]; oxacillin 0.25 μg/ml): almost completely inhibited
- DT (detection time) ([6]; oxacillin 32 μg per ml): 6.3 h
- DT (detection time) ([6]; oxacillin 64 μg per ml): 7.0 h
- DT (detection time) ([6]; oxacillin 128 μg per ml): 9.3 h
- growth [6, 8]: not inhibited to a large extent
- growth [6, 9]: only slightly inhibited
- DT (detection time) ([7]; oxacillin 32 μg per ml): 6.2 h
- DT (detection time) ([7]; oxacillin 64 μg per ml): 6.8 h
- DT (detection time) ([7]; oxacillin 128 μg per ml): 12.1 h
- growth [7, 8]: not inhibited to a large extent
- growth [7, 9]: only slightly inhibited
